Source: paper PMC4129175, “HPLC-Fingerprints and Antioxidant Constituents of Phyla nodiflora” (The Scientific World Journal, 2014)
Where two headings read alike, the source gives them in different places.

Key:
[1] = DPPH radical (DPPH∙) scavenging assay; details: concentration that scavenges 50% radicals; mean ± SD, n = 3
Experimental: In the DPPH radical (DPPH^∙) scavenging assay, fifty microliters of samples of various concentrations were mixed with 150 μl of DPPH^∙ solution (0.1 mM) dissolved in methanol. Each mixture was allowed to stand for 30 min and measured at 517 nm using a multiplate spectrophotometer (μQuant, Bio-Tek, USA). The scavenging ability was calculated using the following formula: (1) Scavenging ability (%) =(1−sample absorbance/control absorbance)×100%.

[2] = Superoxide anion radical (O2∙−) scavenging assay (xanthine/xanthine oxidase, NBT); type: biochemical; details: concentration that scavenges 50% radicals; mean ± SD, n = 3
Experimental: (§1) The procedures of O2 ^∙− scavenging activity and mushroom tyrosinase inhibitory effect were performed as previous report. In the O2 ^∙− scavenging assay, xanthine (0.1 mM, 15 μl) in 50 mM phosphate buffer (pH 7.4), NBT (25 μM, 16 μl), EDTA (0.1 μM, 14 μl), and 100 μl of various concentrations of test compounds were mixed in the 96-well plates. Reactions were initiated by adding 0.5 U xanthine oxidase. After 30 min, the absorbance of each mixture was measured at 540 nm. In the mushroom tyrosinase inhibitory assay, L-tyrosine (2 mM, 80 μl) in 50 mM phosphate buffer (pH 6.5) and various concentrations of test compounds (100 μl) were added to 96-well plates. After 10 min incubation, 20 U mushroom tyrosinase was added to start the reaction. The absorbance of each mixture was measured at 490 nm after 30 min incubation. The O2 ^∙− scavenging capacity and the percentage inhibition of mushroom tyrosinase were calculated using the same formula as for the DPPH radical scavenging assay.

[3] = ABTS cation radical (ABTS∙+) decolorization/scavenging assay; details: concentration that scavenges 50% radicals; mean ± SD, n = 3
Experimental: The ABTS decolorization assay was performed as described, with slight modification. The ABTS cation radical (ABTS^∙+) was produced by reacting 7 mM stock solution of ABTS with 2.45 mM potassium persulfate (final concentration) and allowing the mixture to stand in the dark for 6–8 h at room temperature before use. The ABTS^∙+ solution was diluted to an absorbance of 0.7 ± 0.02 at 734 nm. Thirty microliters of samples of different concentrations were mixed with 170 μl of ABTS^∙+ working solution under a dark condition and shaken for 15 s. The absorbance was measured at 734 nm after 20 min. The scavenging capacity was calculated using the same formula as for the DPPH radical scavenging assay.

[4] = set-up: method as in Lan et al. 2013 [15]; details: positive control; ref Lan et al. 2013 [15]; cited from earlier work
[5] = set-up: method as in Lan et al. 2013 [15]; details: positive control; ref Lan et al. 2013 [15]; cited from earlier work; remark: listed apart in the source
[6] = set-up: method as in Lan et al. 2013 [15]; details: positive control; ref Lan et al. 2013 [15]; cited from earlier work; remark: listed apart in the source
mushroom tyrosinase = mushroom tyrosinase (Agaricus bisporus, UniProt C7FF04); assay: Lineweaver-Burk kinetic study of tyrosinase inhibition; type: biochemical; details: Lineweaver-Burk plot, various concentrations of tyrosine
Experimental: as §1
(§2) This study used Lineweaver-Burk plots to determine the inhibitory mode of test samples [15]. The kinetic study was performed in the presence or absence of test samples with various concentrations of tyrosine or xanthine as the substrate.
Figure 2 Lineweaver-Burk plot of tyrosinase inhibition of (a) onopordin (4) and (b) eupafolin (7) with various concentrations of tyrosine. […]

xanthine oxidase (XO) = target: T1, xanthine oxidase (XO) (Bos taurus, UniProt P80457); assay: Lineweaver-Burk kinetic study of xanthine oxidase inhibition; type: biochemical; details: for Ki / Vmax (xanthine oxidase): xanthine as substrate
T1 construct: purchased Sigma-Aldrich; host or cells: buttermilk
Experimental: as §1, §2
Figure 1 Lineweaver-Burk plot of xanthine oxidase inhibition of eupafolin (7) with various concentrations of xanthine. (×) Without eupafolin, (▲) 5 μM of eupafolin, (●) 10 μM of eupafolin, and (○) 20 μM of eupafolin. Data are presented as mean ± SD of three independent experiments.

T1 sequence (P80457 whole entry): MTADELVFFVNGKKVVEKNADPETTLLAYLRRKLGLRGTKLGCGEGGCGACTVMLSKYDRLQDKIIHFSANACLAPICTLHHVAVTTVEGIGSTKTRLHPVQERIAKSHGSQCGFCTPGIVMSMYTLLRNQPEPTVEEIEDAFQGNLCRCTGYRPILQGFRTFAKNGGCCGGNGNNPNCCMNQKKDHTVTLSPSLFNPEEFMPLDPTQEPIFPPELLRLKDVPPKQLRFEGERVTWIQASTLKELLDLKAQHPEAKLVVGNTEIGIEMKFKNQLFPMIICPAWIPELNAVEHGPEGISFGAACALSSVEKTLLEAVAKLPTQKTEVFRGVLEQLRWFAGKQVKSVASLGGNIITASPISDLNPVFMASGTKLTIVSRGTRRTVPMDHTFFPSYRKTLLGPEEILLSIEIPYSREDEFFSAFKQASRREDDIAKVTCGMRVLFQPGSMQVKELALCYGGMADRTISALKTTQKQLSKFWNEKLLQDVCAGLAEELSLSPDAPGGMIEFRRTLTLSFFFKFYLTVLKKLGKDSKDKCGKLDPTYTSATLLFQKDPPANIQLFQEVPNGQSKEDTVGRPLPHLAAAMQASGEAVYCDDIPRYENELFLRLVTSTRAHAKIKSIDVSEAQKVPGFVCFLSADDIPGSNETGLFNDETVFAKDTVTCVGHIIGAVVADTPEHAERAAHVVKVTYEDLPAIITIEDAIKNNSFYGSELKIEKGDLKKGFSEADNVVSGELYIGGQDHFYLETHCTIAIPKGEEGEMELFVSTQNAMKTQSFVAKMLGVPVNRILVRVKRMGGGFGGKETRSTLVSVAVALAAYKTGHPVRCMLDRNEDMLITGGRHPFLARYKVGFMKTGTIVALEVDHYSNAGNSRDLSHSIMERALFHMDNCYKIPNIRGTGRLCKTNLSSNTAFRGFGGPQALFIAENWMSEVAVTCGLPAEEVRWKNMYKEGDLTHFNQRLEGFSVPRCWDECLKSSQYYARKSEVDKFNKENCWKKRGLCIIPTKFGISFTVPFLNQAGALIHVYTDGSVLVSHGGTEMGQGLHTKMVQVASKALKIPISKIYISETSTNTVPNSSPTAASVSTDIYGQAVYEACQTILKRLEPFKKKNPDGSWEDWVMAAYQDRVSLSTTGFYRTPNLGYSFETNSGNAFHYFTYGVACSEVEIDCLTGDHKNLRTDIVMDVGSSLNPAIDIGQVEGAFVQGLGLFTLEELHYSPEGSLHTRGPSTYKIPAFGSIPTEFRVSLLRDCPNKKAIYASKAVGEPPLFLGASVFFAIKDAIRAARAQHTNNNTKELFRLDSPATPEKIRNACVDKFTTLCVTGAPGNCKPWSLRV
Chain of mushroom tyrosinase (C7FF04 1-392): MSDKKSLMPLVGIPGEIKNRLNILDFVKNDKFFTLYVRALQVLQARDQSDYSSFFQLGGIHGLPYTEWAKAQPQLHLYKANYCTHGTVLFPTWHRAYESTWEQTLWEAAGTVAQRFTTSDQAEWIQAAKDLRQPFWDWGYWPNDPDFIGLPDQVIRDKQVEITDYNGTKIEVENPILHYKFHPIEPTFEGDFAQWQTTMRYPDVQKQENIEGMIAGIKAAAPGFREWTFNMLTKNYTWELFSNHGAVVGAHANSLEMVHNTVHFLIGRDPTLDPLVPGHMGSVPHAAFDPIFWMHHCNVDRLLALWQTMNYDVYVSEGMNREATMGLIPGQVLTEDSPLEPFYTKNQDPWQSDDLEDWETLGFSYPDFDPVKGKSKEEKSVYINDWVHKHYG
Chain of mushroom tyrosinase (G1K3P4 entry or part of it, further chain): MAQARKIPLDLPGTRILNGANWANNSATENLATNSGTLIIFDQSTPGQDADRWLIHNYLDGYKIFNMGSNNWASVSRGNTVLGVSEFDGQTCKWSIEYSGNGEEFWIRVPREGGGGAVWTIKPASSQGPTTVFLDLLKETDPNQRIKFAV

Row | Compound | DPPH∙ SC50 [1] | O2∙− SC50 [2] | ABTS∙+ SC50 [3] | other results
1 | O=C1O[C@H]([C@@H](O)CO)C(O)=C1O [Vit. C, L-Ascorbic acid, reference compound] | 64.6 ± 4.4 µM | 23.5 ± 1.7 µM | 49.9 ± 2.1 µM | –
2 | COc1cc(-c2cc(=O)c3c(O)c(O)c(O)cc3o2)ccc1O [Compound 2, nodifloretin] | 198.2 ± 3.8 µM | 42.3 ± 1.5 µM | 62.2 ± 2.5 µM | –
3 | O=c1cc(-c2ccc(O)cc2)oc2cc(O)cc(O)c12 [Apigenin] | – | – | – | ABTS∙+ SC50 [4]: 159.6 ± 4.4 µM; O2∙− SC50 [5]: 81.3 ± 2.0 µM; DPPH∙ SC50 [6]: >300 µM
4 | COc1c(O)cc2oc(-c3ccc(O)cc3)cc(=O)c2c1O [Compound 8, hispidulin] | 57.5 ± 2.7 µM | – | 55.3 ± 3.8 µM | –
5 | COc1c(O)cc(O)c2c(=O)cc(-c3ccc(O)cc3)oc12 [Compound 3, 4′-hydroxywogonin] | >300 µM | 59.9 ± 2.1 µM | >300 µM | –
6 | COc1cc(-c2cc(=O)c3c(O)cc(O)c(O)c3o2)ccc1O [Compound 6, 5,7,8,4′-tetrahydroxy-3′-methoxyflavone] | >300 µM | 34.6 ± 2.4 µM | >300 µM | –
7 | COc1c(O)cc2oc(-c3ccc(O)c(O)c3)cc(=O)c2c1O [Compound 7, eupafolin] | 24.1 ± 0.4 µM | 8.3 ± 0.4 µM | 30.5 ± 1.2 µM | Inhibitory mode on tyrosinase (mushroom tyrosinase): competitive inhibitor; Ki (xanthine oxidase (XO); 7 at 5 μM): 4.48 µM; Vmax (xanthine oxidase) (xanthine oxidase (XO); 7 at 5 μM): 3.6 × 10^−2 ΔO.D./min; Ki (xanthine oxidase (XO); 7 at 10 μM): 5.05 µM; Vmax (xanthine oxidase) (xanthine oxidase (XO); 7 at 10 μM): 3.2 × 10^−2 ΔO.D./min; Ki (xanthine oxidase (XO); 7 at 20 μM): 8.93 µM; Vmax (xanthine oxidase) (xanthine oxidase (XO); 7 at 20 μM): 3.1 × 10^−2 ΔO.D./min; Inhibitory mode on xanthine oxidase (xanthine oxidase (XO); Lineweaver-Burk plot, various concentrations of xanthine): mixed-type inhibitor
8 | COc1cc2oc(-c3ccc(O)c(O)c3)cc(=O)c2c(O)c1OC [Compound 5, cirsiliol] | 21.8 ± 1.2 µM | 10.7 ± 1.3 µM | 58.4 ± 2.7 µM | –
9 | COc1c(O)cc(O)c2c(=O)cc(-c3ccc(O)c(O)c3)oc12 [Compound 4, onopordin] | 24.7 ± 1.2 µM | 23.5 ± 0.5 µM | 53.7 ± 3.9 µM | Inhibitory mode on tyrosinase (mushroom tyrosinase): mixed-type inhibitor
